Assay results: ChEMBL document CHEMBL1201862, “PubChem BioAssay data set” (2004)
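Tested at 5 concentrations; 48 h exposure; 96-well plates; endpoints linearly interpolated, else capped at highest concentration. Abbreviation: GI50, concentration required for 50% inhibition of growth.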 Calls of active or inactive are those of the source. Rule as the data show it: active = GI50 up to about 1.1 µM and inactive = higher.

Key:
Test in all cases: NCI anticancer screen, dose series, 48 h
786-0 = tested on: 786-0
A549 = tested on: A549
ACHN = tested on: ACHN
CAKI-1 = tested on: CAKI-1
COLO 205 = tested on: COLO 205
DLD-1 = tested on: DLD-1
DMS-273 = tested on: DMS-273
EKVX = tested on: EKVX
HCC 2998 = tested on: HCC 2998
HCT-116 = tested on: HCT-116
HCT-15 = tested on: HCT-15
HOP-18 = tested on: HOP-18
HOP-62 = tested on: HOP-62
HOP-92 = tested on: HOP-92
HT-29 = tested on: HT-29
IGROV-1 = tested on: IGROV-1
KM-20L2 = tested on: KM-20L2
KM12 = tested on: KM12
LOX IMVI = tested on: LOX IMVI
M14 = tested on: M14
M19-MEL = tested on: M19-MEL
Malme-3M = tested on: Malme-3M
NCI-H226 = tested on: NCI-H226
NCI-H23 = tested on: NCI-H23
NCI-H460 = tested on: NCI-H460
OVCAR-3 = tested on: OVCAR-3
OVCAR-4 = tested on: OVCAR-4
OVCAR-5 = tested on: OVCAR-5
OVCAR-8 = tested on: OVCAR-8
RPMI-8226 = tested on: RPMI-8226
RXF 393 = tested on: RXF 393
SF-268 = tested on: SF-268
SF-295 = tested on: SF-295
SF-539 = tested on: SF-539
SK-MEL-28 = tested on: SK-MEL-28
SK-MEL-2 = tested on: SK-MEL-2
SK-OV-3 = tested on: SK-OV-3
SN12C = tested on: SN12C
SNB-19 = tested on: SNB-19
SNB-75 = tested on: SNB-75
SNB-78 = tested on: SNB-78
SW-620 = tested on: SW-620
TK-10 = tested on: TK-10
U-251 = tested on: U-251
UACC-257 = tested on: UACC-257
UACC-62 = tested on: UACC-62
UO-31 = tested on: UO-31
XF498 = tested on: XF498
A498 = tested on: A498
CCRF-CEM = tested on: CCRF-CEM
DMS-114 = tested on: DMS-114
HL-60 = tested on: HL-60
K562 = tested on: K562
LXFL 529 = tested on: LXFL 529
MOLT-4 = tested on: MOLT-4
NCI-H522 = tested on: NCI-H522
RXF 631 = tested on: RXF 631
SK-MEL-5 = tested on: SK-MEL-5
SR = tested on: SR

Measured: GI50

Cc1cc(Cl)cc2c1NC(=O)C2(O)CC(=O)c1ccc(F)cc1 (stereo not drawn)
74100 nM: HCT-15
inactive: 786-0 27000 nM | A549 30200 nM | ACHN 32500 nM | CAKI-1 > 100000 nM | COLO 205 24800 nM | DLD-1 96800 nM | DMS-273 77300 nM | EKVX > 100000 nM | HCC 2998 36100 nM | HCT-116 56400 nM | HOP-18 11300 nM | HOP-62 > 100000 nM | HOP-92 > 100000 nM | HT-29 48100 nM | IGROV-1 58900 nM | KM-20L2 > 100000 nM | KM12 > 100000 nM | LOX IMVI 27700 nM | M14 88500 nM | M19-MEL 5410 nM | Malme-3M 29300 nM | NCI-H226 39800 nM | NCI-H23 61100 nM | NCI-H460 83800 nM | OVCAR-3 37800 nM | OVCAR-4 41900 nM | OVCAR-5 > 100000 nM | OVCAR-8 80700 nM | RPMI-8226 27200 nM | RXF 393 19700 nM | SF-268 67000 nM | SF-295 53800 nM | SF-539 40900 nM | SK-MEL-28 37200 nM | SK-MEL-2 73300 nM | SK-OV-3 > 100000 nM | SN12C 27200 nM | SNB-19 > 100000 nM | SNB-75 26500 nM | SNB-78 31400 nM | SW-620 94000 nM | TK-10 > 100000 nM | U-251 39000 nM | UACC-257 37300 nM | UACC-62 20000 nM | UO-31 47600 nM | XF498 32100 nM

COC(=O)[C@@H](C)[C@H]1CC[C@@](C)(CCC2=C(C)CC3C=C(C)CCC3C2(C)C)OO1 (stereo partly drawn)
inactive: A498 1800 nM | A549 1600 nM | ACHN 1530 nM | CAKI-1 1340 nM | COLO 205 1660 nM | DMS-114 1810 nM | DMS-273 2180 nM | EKVX 1640 nM | HCC 2998 1350 nM | HCT-116 1690 nM | HOP-62 2060 nM | HT-29 1420 nM | IGROV-1 1420 nM | K562 1300 nM | KM-20L2 1700 nM | KM12 1420 nM | M14 1730 nM | M19-MEL 1770 nM | Malme-3M 1910 nM | NCI-H226 2040 nM | NCI-H23 1700 nM | NCI-H460 1500 nM | OVCAR-3 1920 nM | OVCAR-4 1520 nM | OVCAR-5 1870 nM | OVCAR-8 1920 nM | RPMI-8226 1650 nM | RXF 393 1370 nM | RXF 631 2000 nM | SF-268 1850 nM | SF-295 1790 nM | SF-539 1820 nM | SK-MEL-28 1650 nM | SK-MEL-2 1590 nM | SK-MEL-5 1490 nM | SK-OV-3 2400 nM | SNB-19 1720 nM | SNB-75 1570 nM | SNB-78 2230 nM | SR 1570 nM | TK-10 1910 nM | U-251 1420 nM | UACC-257 2990 nM | UACC-62 1940 nM | UO-31 1450 nM
1310 nM: HCT-15
active: 786-0 117 nM | CCRF-CEM 165 nM | DLD-1 962 nM | HL-60 212 nM | LXFL 529 1030 nM | MOLT-4 1040 nM | NCI-H522 167 nM | SN12C 1060 nM | SW-620 277 nM
